# Results taken from patent US20180119105A1, “METHOD FOR PRODUCTION OF INSULIN-PRODUCING CELLS” (University of Copenhagen, priority 2015, published 2018).
# Key:
# [1] = tested on: Wild type C57bl6 mouse pancreatic explants at E11.5; assay: RT-qPCR of endocrine gene expression in mouse pancreatic explants cultured ex-vivo with Verteporfin; type: cell-based; conditions: 1 μg/ml Verteporfin for 72 hours; RT-qPCR after 6 days of culture; fold change relative to Ecad expression
# Method: FIG. 4: Inhibition of Yap1 using Verteporfin in wild type mouse pancreatic explants leads to enhanced endocrine differentiation. Wild type C57bl6 mouse pancreatic explants at E11.5 embryonic stages were cultured ex-vivo for initial 24 hrs in normal culture media supplemented with 1 ug/ml Verteporfin for 72 hours and again in normal culture media without Verteporfin for another 48 hours. The explants were analyzed by RT-qPCR for endocrine gene expression after 6 days of culture. […] This ultimately leads to enhanced endocrine differentiation as analysed for Insulin (E) and Glucagon (F) expression. Y axis: relative expression (fold change relative to Ecad expression).
# Wild type C57bl6 mouse pancreatic explants at E11.5 embryonic stages were cultured ex-vivo for initial 24 hours in normal culture media supplemented with 1 μg/ml Verteporfin for 72 hours and again in normal culture media without Verteporfin for another 48 hours. The explants were analyzed by RT-qPCR for endocrine gene expression after 6 days of culture. […] Expression of these genes is characteristic of islet cell fate.
# [2] = tested on: hES cell derived pancreatic progenitors (PDX1 eGFP); assay: qRT PCR analysis of hES cell derived pancreatic progenitors treated with verteporfin for 4 days; type: cell-based, human; conditions: 1 μg/ml verteporfin, compared to DMSO treated control cultures
# Method: FIG. 5: Inhibition of YAP1 in hES cell derived pancreatic progenitors leads to β-cell differentiation. (A) Outline of the 15 day protocol (modified from Rezania et al, 2010) used to generate pancreatic progenitors from human ES cells. At the end of the protocol the majority of cells express the progenitor markers PDX1 and NKX6.1. The YAP1-TEAD inhibitor Verteporfin (VP) was added to the medium during PE day 4 and the cells were treated for either 4 or 5 days. […] Y axis: relative mRNA expression as fold change.
# (§1) We cultured the hES PDX1 GFP cells using a modified protocol from Rezania et al 2010 (see below for the exact protocol, outlined in FIG. 5A) that efficiently generates pancreatic progenitors mostly expressing PDX1, NKX6.1. Briefly, Hues4 hES PDX1 GFP cells were cultured on feeder-free DEF system (““DEF-CS™”, Cellectis stem cells, Cellartis AB”) until full confluency. When full confluency was reached the cells were subjected to differentiation as follows for 5 different stages to obtain insulin producing mature Beta cells.
# (§2) Cells were cultured in RPMI medium with 3 μM CHIR99021 (a Wnt activator) for 1 day. During the second day the cells were treated with 100 ng/ml Activin A. For days 3 and 4 the cells were treated with 100 ng/ml Activin A along with 2% (v/v) B27.
# (§3) The cultures were exposed to F12 media containing 2% B27, 2 gm/L Sodium bicarbonate along with 0.25 mM Vitamin C and 50 ng/ml FGF7 for two days.
# (§4) The cultures were continued for four days in DMEM high glucose media along with 2% B27, 2 g/L Sodium bicarbonate, 0.25 mM Vitamin C, 2 ng/ml FGF7, 0.25 μM Sant1, 100 ng/ml Noggin and 2 μM Retinoic acid.
# (§5) Stage 4 cells were cultured for 5 days to obtain PDX1 and NKX6.1 expressing pancreatic progenitor cells by culturing in 2% B27, 2 gm/L Sodium bicarbonate, 0.25 mM Vitamin C, 100 ng/ml Noggin and 500 nM TPB (PKC activator).
# (§6) To obtain insulin expressing, MAFA positive mature Beta cells, the cultures were treated with the YAP-TEAD inhibitor Verteporfin at a concentration of 1 μg/ml in Stage 4 medium and cultured for another 4-9 days.
# (§7) After culturing the cells for the first 4 stages above (around 15 days), the differentiated hES cells were enriched for PDX1 expression as they expressed GFP. These enriched pancreatic progenitor cultures were treated with the YAP1 -TEAD chemical inhibitor Verteporfin for an additional 4-5 days and checked for gene expression (stage 5). As expected from mouse studies, inhibition of YAP1 activity in the PDX1 enriched cells, using verteporfin after 4 days led to efficient and enhanced endocrine differentiation especially towards insulin producing beta cells at the expense of acinar lineage.
# [3] = tested on: hES cell derived pancreatic progenitors (PDX1 eGFP); assay: qRT PCR analysis of hES cell derived pancreatic progenitors treated with verteporfin for 5 days; type: cell-based, human; conditions: verteporfin 5 days
# Method: FIG. 6: Treatment with verteporfin for 5 days leads to enhanced expression of islet specific genes. […] Expression of NKX6.1 is not altered, as it is expressed in both pancreatic progenitors and mature beta-cells. […]
# as §1, §2, §3, §4, §5, §6, §7
# (§8) The verteporfin treatment directed the pancreatic progenitors to endocrine lineage differentiation at the expense of acinar lineage.
# [4] = tested on: Stable Pdx1 Gfp human ES cells differentiated to pancreatic progenitor stage; assay: Immunostaining (c-peptide, Neurogenin3) with confocal microscopy of hES cell derived pancreatic progenitors treated with VP for 5 days; type: cell-based; conditions: VP 1 μg/ml, compared to DMSO treated cells
# Method: FIG. 8: hES cell derived pancreatic progenitors treated with VP for 5 days show enhanced endocrine differentiation & Insulin expression. Stable Pdx1 Gfp human ES cells were differentiated to pancreatic progenitor stage and then treated with either DMSO (control) or Verteporfin (VP, 1 μg/ml) for 5 additional days. Cultures were immuno-stained with c-peptide (light grey) and Neurogenin3 (dark grey) antibodies and imaged using confocal microscope.
# Stable Pdx1 Gfp human ES cells were differentiated to pancreatic progenitor stage and then treated with either DMSO (control) or Verteporfin (VP, 1 μg/ml) for 5 additional days. Cultures were immuno-stained with c-peptide and Neurogenin3 antibodies and imaged using confocal microscopy (FIG. 8).
# [5] = tested on: hES cell derived pancreatic progenitors (PDX1-eGFP); assay: Immunostaining (C-peptide, Glucagon, GFP) of hES cell derived pancreatic progenitors treated with verteporfin for 5 days; type: cell-based, human
# Text: FIG. 7: Treating hES cell derived pancreatic progenitors with verteporfin for 5 days leads to enhanced insulin expression. Stable PDX1-eGFP human ES cells were differentiated to pancreatic progenitor stage and treated with either DMSO (controls) or Verteporfin for 5 days and immuno stained with C-peptide (white), Glucagon (dark grey) and GFP PDX1 (light grey). Verteporfin-treated progenitors show enhanced endocrine/beta cell differentiation and express higher levels of C-peptide, whereas DMSO treated cells express low levels of C-peptide and Glucagon.
# as §8
# [6] = fold-change versus DMSO control
# [7] = verteporfin 5 days vs DMSO, immunostaining
substance,measurement,setting,value
Verteporfin,Arx expression,[1],significant up-regulation
same,Glucagon expression,[1],increased expression
same,Insm1 expression,[1],significant up-regulation
same,Insulin expression,[1],increased expression
same,NeuroD expression,[1],significant up-regulation
same,Neurogenin (Ngn3) expression,[1],significant up-regulation
same,CPA1 mRNA expression (exocrine gene),[2],down-regulated
same,Glucagon mRNA expression,[2],up-regulation
same,ISL-1 mRNA expression,[2],up-regulation
same,Insulin mRNA expression,[2],up-regulation
same,MAFA mRNA expression,[2],up-regulation
same,MAFB mRNA expression,[2],up-regulation
same,PTF1a mRNA expression (exocrine gene),[2],down-regulated
same,insulin mRNA levels up-regulated,[3]; compared to DMSO control cultures,5 fold
same,INSM1 mRNA expression,[3]; compared to day 4 cultures,up-regulation
same,ISL1 mRNA expression,[3]; compared to day 4 cultures,up-regulation
same,MAFA mRNA expression,[3]; compared to day 4 cultures,up-regulation
same,CPA1 mRNA expression (exocrine gene),[3]; [6],down-regulation
same,Glucagon mRNA expression,[3]; [6],down-regulation
same,MAFB mRNA expression,[3]; [6],up-regulation
same,NKX6.1 mRNA expression,[3]; [6],not altered
same,Neurogenin3 (NGN3) mRNA expression,[3]; [6],up-regulation
same,PTF1a mRNA expression (exocrine gene),[3]; [6],down-regulation
same,Ngn3 level (immunostaining),[4],higher levels
same,c-peptide level (immunostaining),[4],higher levels
same,MAFA status of Insulin expressing cells,[5]; verteporfin 5 days,positive for MAFA
same,Glucagon protein expression,[5]; [7],enhanced
same,insulin (c-peptide) protein expression,[5]; [7],enhanced
